Active and inactive are the calls of the source.
Legend:
[1] = molecular target: Serine/threonine-protein phosphatase PP1-alpha catalytic subunit (Homo sapiens, UniProt P62136); assay: inhibition of protein phosphatase 1 activity – biochemical, fluorescence, dose response (AID 2394)
[2] = molecular target: Serine/threonine-protein phosphatase (Homo sapiens, UniProt Q9BPW0); assay: inhibition of protein phosphatase 5 activity – biochemical, fluorescence, dose response (AID 2395)
[3] = molecular target: T1, Sentrin-specific protease 6 (Homo sapiens, UniProt Q9GZR1); type: functional;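 note: Luminescence-based dose-response confirmatory assay of SENP6 inhibition, following up an ultra-high-throughput screen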
T1 sequence (Q9GZR1 whole entry): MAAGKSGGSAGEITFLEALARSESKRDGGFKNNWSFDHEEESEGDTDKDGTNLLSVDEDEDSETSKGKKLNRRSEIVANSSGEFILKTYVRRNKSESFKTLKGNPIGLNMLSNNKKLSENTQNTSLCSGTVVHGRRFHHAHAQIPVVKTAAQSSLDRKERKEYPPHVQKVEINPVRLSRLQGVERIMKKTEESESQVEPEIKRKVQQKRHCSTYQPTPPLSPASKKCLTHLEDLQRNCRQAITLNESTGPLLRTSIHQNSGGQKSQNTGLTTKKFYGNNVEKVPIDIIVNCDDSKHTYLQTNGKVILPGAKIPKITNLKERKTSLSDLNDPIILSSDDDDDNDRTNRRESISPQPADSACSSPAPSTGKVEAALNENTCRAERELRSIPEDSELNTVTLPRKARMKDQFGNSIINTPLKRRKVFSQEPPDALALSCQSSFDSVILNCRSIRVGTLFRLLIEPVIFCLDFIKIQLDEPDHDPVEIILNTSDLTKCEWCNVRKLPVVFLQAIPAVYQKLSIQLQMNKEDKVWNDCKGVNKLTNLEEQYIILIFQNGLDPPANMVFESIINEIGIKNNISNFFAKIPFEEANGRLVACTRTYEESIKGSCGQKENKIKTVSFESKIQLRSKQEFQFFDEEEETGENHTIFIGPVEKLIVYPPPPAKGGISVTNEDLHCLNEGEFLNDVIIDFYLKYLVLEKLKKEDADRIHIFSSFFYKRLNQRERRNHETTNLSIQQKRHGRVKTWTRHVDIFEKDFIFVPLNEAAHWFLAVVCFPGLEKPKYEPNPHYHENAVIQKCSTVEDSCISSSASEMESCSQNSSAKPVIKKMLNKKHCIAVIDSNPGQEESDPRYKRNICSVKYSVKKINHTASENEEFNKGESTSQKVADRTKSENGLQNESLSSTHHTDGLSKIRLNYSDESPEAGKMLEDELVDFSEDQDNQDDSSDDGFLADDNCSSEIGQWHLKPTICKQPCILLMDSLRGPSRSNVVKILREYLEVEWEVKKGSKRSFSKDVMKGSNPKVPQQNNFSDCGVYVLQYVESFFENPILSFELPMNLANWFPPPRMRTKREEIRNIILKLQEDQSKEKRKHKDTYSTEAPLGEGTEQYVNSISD

[4] = molecular target: T2, Sentrin-specific protease 8 (Homo sapiens, UniProt Q96LD8); type: functional;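 note: luminescence read-out of SENP8 inhibition, dose-response confirmation following an ultra-high-throughput screen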
T2 sequence (Q96LD8 whole entry): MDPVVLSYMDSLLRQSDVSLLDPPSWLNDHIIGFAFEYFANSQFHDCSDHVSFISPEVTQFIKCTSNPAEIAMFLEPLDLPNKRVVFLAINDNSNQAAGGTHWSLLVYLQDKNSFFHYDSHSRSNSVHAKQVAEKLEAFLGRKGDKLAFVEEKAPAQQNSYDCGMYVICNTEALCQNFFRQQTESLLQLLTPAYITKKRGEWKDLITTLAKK

[5] = molecular target: T3, Histone-lysine N-methyltransferase NSD2 (Homo sapiens, UniProt O96028); type: biochemical
T3 sequence (O96028 whole entry): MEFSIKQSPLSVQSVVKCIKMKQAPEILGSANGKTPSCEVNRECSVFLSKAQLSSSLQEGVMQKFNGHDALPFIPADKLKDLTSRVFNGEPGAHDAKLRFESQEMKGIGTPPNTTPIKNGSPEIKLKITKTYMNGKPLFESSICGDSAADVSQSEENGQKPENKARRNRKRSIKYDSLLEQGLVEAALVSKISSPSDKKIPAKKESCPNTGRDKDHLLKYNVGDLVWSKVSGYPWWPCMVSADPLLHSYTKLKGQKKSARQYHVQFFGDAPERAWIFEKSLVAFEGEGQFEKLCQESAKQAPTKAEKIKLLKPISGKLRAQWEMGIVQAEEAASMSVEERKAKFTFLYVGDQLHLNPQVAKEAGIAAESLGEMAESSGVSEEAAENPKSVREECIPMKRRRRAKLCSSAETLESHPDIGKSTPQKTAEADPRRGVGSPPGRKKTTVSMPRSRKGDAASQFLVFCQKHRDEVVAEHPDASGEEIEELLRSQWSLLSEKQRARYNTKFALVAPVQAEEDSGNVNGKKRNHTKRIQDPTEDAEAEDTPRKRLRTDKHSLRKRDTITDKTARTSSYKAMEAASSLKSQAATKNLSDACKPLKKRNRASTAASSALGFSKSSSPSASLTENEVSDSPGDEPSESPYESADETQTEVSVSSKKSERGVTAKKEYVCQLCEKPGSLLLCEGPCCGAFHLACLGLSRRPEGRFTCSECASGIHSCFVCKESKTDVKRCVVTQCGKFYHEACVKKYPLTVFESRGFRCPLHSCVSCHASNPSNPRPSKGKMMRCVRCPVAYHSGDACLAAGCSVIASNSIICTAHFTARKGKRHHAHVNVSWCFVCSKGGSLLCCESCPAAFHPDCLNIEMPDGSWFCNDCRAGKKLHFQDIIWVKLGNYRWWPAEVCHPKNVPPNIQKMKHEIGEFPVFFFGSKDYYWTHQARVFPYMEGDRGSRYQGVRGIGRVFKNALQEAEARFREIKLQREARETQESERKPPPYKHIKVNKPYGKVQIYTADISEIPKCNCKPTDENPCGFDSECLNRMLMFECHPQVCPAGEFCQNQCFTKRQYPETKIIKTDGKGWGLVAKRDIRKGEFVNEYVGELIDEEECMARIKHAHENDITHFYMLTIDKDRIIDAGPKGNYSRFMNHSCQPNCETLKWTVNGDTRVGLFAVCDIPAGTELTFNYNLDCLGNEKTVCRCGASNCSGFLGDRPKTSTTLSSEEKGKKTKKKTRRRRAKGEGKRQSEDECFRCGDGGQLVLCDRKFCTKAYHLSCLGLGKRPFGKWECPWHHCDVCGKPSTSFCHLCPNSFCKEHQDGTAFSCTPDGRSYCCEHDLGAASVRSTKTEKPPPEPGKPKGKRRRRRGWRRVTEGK

Sequence of Serine/threonine-protein phosphatase PP1-alpha catalytic subunit (P62136 whole entry): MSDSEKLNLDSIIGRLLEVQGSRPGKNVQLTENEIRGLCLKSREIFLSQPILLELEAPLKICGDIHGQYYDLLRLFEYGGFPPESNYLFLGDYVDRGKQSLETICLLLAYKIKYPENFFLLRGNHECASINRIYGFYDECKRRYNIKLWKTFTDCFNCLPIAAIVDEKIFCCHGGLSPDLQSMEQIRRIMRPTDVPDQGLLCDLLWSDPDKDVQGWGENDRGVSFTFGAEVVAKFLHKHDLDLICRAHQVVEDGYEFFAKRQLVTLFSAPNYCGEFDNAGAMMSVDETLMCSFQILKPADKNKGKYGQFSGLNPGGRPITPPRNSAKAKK
Sequence of Serine/threonine-protein phosphatase (Q9BPW0 whole entry): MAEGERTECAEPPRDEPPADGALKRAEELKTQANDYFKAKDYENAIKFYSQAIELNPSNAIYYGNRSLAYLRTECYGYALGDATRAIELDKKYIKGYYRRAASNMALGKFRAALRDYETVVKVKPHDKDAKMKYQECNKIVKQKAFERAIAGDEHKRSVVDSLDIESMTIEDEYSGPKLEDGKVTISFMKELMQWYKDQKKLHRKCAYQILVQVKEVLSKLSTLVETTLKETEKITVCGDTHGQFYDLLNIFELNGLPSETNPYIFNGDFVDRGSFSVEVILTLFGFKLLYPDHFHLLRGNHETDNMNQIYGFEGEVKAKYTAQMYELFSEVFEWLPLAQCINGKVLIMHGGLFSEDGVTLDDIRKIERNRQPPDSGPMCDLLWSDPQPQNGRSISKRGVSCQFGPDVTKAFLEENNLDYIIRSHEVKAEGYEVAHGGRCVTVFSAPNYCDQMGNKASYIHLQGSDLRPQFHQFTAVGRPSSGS

AC50 [5] | Compound | IC50 [1] | IC50 [2] | IC50 [3] | IC50 [4]
12.5 µM (active) | O=C(COC(=O)c1ccc([N+](=O)[O-])s1)Nc1ncc(C(F)(F)F)cc1Cl | – | – | 5.68 µM (active) | 4.83 µM (active)
– | CCN(c1ccccc1)c1cc2ccccc2c(=O)[nH]1 | – | – | 2.21 µM (active) | 3.73 µM (active)
3.39 µM (active) | O=C(NC1(O)C(=O)c2ccccc2C1=O)c1ccc(C(F)(F)F)cc1 | > 67 µM (not active) | > 0.828 µM (active) | 2.66 µM (active) | 4.9 µM (active)

Compound | AC50 [5] | IC50 [1] | IC50 [2] | IC50 [3] | IC50 [4]
O=C(NC1(O)C(=O)c2ccccc2C1=O)c1c(Cl)cccc1Cl | 3.16 µM (active) | > 67 µM (not active) | > 2.48 µM (active) | 3.53 µM (active) | 4.78 µM (active)

— ChEMBL document CHEMBL1201862, “PubChem BioAssay data set” (2004)
